In general, IC50 refers to the midpoint of a concentration-inhibition curve. The low end stands for inhibition by little substance, the high end for a need for much substance.

Structures are written as SMILES. Some results are limits rather than exact numbers.

Sequence of RORγt (P51449 269-508): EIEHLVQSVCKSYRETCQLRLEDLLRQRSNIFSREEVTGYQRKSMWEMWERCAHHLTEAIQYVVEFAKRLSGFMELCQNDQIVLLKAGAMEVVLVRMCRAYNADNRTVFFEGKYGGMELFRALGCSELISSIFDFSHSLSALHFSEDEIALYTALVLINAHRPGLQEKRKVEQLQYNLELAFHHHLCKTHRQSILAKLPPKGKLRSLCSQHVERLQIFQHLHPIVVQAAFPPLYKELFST

The target in the test is RORγt (Homo sapiens (Human), UniProt P51449). In words: Gal4 ligand binding assay (RORγt Gal fusion luciferase reporter assay in HEK293T cells). The test is classed as cell-based. As to conditions: RORγt inverse agonists in RORγt Gal fusion assay. Here is the method:
The N-terminal DNA binding domains (DBD) of the native RORγ and RORγt receptors have been substituted with that of the yeast GAL4-DBD and stably transfected in HEK293T cells that also stably express luciferase under the regulation by upstream activation sequence of yeast Gal4. These cells constitutively express high level RORγ activity due to binding of endogenous co-factors. Both agonist and inverse agonist activity can be detected. The assay was performed according to kit manufacturer's instructions as follows. 10 mM compound stocks were diluted serially 1:3 with DMSO and further diluted with provided media to generate 10 titration points from 60 μM to 3 nM. These treatment conditions were added to the plates as 2× media in 100 μL volume. Each plate includes a positive control with 10 titration points as well as 6 negative control wells with vehicle only, with final DMSO concentration of 0.2%. RORγ reporter cells were rapidly thawed and added to the plates in 100 μL volume. The plates were incubated for 24 h in a 37° C. humidified 5% CO2 incubator. Media was removed before the addition of room temperature luciferous detection substrate. After 5 minute incubation, relative light units (RLUs) were quantified using a plate reading luminometer. Data was normalized to […] with only 0.2%0DMSO. Before establishing internal controls, ursolic acid was used as control.
`Cc1cc(C(O)(C(F)(F)F)C(F)(F)F)ccc1-c1ccc(CN2CC3(C2)CS(=O)(=O)C3)cc1C(C)C` [Example 12, 6-((4′-(1,1,1,3,3,3-hexafluoro-2-hydroxypropan-2-yl)-2-isopropyl-2′-methyl-[1,1′-biphenyl]-4-yl)methyl)-2-thia-6-azaspiro[3.3]heptane 2,2-dioxide] registered an IC50 of 50 to 250 nM.

Molecule `CCc1cc(CN2CCC3(CCNC3=O)C2)ccc1-c1ccc(C(O)(C(F)(F)F)C(F)(F)F)cc1` (stereo not shown) [Example 53, 7-((2-ethyl-4′-(1,1,1,3,3,3-hexafluoro-2-hydroxypropan-2-yl)-[1,1′-biphenyl]-4-yl)methyl)-2,7-diazaspiro[4.4]nonan-1-one] came in with a half-inhibitory concentration (IC50) of 50 to 250 nM.

Molecule `Cc1cc(C(O)(C(F)(F)F)C(F)(F)F)ccc1-c1c(F)cc(CN2CC3(C2)CN(S(C)(=O)=O)C3)c(F)c1C1CC1` [Example 89, 2-(2′-cyclopropyl-3′,6′-difluoro-2-methyl-4′-((6-(methylsulfonyl)-2,6-diazaspiro[3.3]heptan-2-yl)methyl)-[1,1′-biphenyl]-4-yl)-1,1,1,3,3,3-hexafluoropropan-2-ol] came in with an IC50 below 50 nM.

`CS(=O)(=O)N1CC2(CN(Cc3ccc(-c4ccc(C(O)(C(F)(F)F)C(F)(F)F)cc4)c(C4CC4)c3)C2)C1` [Example 42, 2-(2′-cyclopropyl-4′-((6-(methylsulfonyl)-2,6-diazaspiro[3.3]heptan-2-yl)methyl)-[1,1′-biphenyl]-4-yl)-1,1,1,3,3,3-hexafluoropropan-2-ol] gave an IC50 below 50 nM.

As for `CCc1cc(CN2CC3(C2)CN(S(C)(=O)=O)C3)ccc1-c1ccc(C(O)(C(F)(F)F)C(F)(F)F)cn1` [Example 63, 2-(6-(2-ethyl-4-((6-(methylsulfonyl)-2,6-diazaspiro[3.3]heptan-2-yl)methyl)phenyl)pyridin-3-yl)-1,1,1,3,3,3-hexafluoropropan-2-ol], the IC50 was in the range of 50 to 250 nM.

With `CC(C)c1cc(CN2CC3(C2)CN(S(C)(=O)=O)C3)c(F)cc1-c1ccc(C(O)(C(F)(F)F)C(F)(F)F)cc1Cl` [Example 81, 2-(2-chloro-5′-fluoro-2′-isopropyl-4′-((6-(methylsulfonyl)-2,6-diazaspiro[3.3]heptan-2-yl)methyl)-[1,1′-biphenyl]-4-yl)-1,1,1,3,3,3-hexafluoropropan-2-ol], the IC50 was below 50 nM.

Take `CS(=O)(=O)N1CC2(CN(Cc3cc(F)c(-c4ccc(C(O)(C(F)(F)F)C(F)(F)F)cc4)c(C4CC4)c3F)C2)C1` [Example 88, 2-(2′-cyclopropyl-3′,6′-difluoro-4′-((6-(methylsulfonyl)-2,6-diazaspiro[3.3]heptan-2-yl)methyl)-[1,1′-biphenyl]-4-yl)-1,1,1,3,3,3-hexafluoropropan-2-ol]: the half-inhibitory concentration (IC50) is below 50 nM.

Take `CCc1cc(CN2CC3(C2)CN(S(C)(=O)=O)C3)cnc1-c1ccc(C(O)(C(F)(F)F)C(F)(F)F)cc1C` [Example 62, 2-(4-(3-ethyl-5-((6-(methylsulfonyl)-2,6-diazaspiro[3.3]heptan-2-yl)methyl)pyridin-2-yl)-3-methylphenyl)-1,1,1,3,3,3-hexafluoropropan-2-ol]: the IC50 lay within 50 to 250 nM.

For the molecule `Cc1cc(C(O)(C(F)(F)F)C(F)(F)F)ccc1-c1cccc(N2CC3(C2)CN(S(C)(=O)=O)C3)c1C` [Example 66, 2-(2,2′-dimethyl-3′-(6-(methylsulfonyl)-2,6-diazaspiro[3.3]heptan-2-yl)-[1,1′-biphenyl]-4-yl)-1,1,1,3,3,3-hexafluoropropan-2-ol], the half-maximal inhibitory concentration (IC50) lay in the range of 50 to 250 nM.

In turn, `Cc1cc(C(O)(C(F)(F)F)C(F)(F)F)ccc1-c1cccc(N2CC3(C2)CN(S(C)(=O)=O)C3)n1` [Example 67, 1,1,1,3,3,3-hexafluoro-2-(3-methyl-4-(6-(6-(methylsulfonyl)-2,6-diazaspiro[3.3]heptan-2-yl)pyridin-2-yl)phenyl)propan-2-ol] gave a half-maximal inhibitory concentration (IC50) above 250 nM.

In turn, `CCc1cc(CN2CC3(C2)CN(S(C)(=O)=O)C3)c(F)cc1-c1ccc(C(O)(C(F)(F)F)C(F)(F)F)cc1` [Example 36, 2-(2′-ethyl-5′-fluoro-4′-((6-(methylsulfonyl)-2,6-diazaspiro[3.3]heptan-2-yl)methyl)-[1,1′-biphenyl]-4-yl)-1,1,1,3,3,3-hexafluoropropan-2-ol] yielded an IC50 below 50 nM.

For `Cc1cc(CN2CC3(C2)CN(S(C)(=O)=O)C3)ccc1-c1ccc(C(O)(C(F)(F)F)C(F)(F)F)cc1` [Example 50, 1,1,1,3,3,3-hexafluoro-2-(2′-methyl-4′-((6-(methylsulfonyl)-2,6-diazaspiro[3.3]heptan-2-yl)methyl)-[1,1′-biphenyl]-4-yl)propan-2-ol], the IC50 is 50 to 250 nM.

For `CCc1cc(CN2CC3(C2)C[S+]([O-])C3)ccc1-c1ccc(C(O)(C(F)(F)F)C(F)(F)F)cc1` [Example 27, 6-((2-ethyl-4′-(1,1,1,3,3,3-hexafluoro-2-hydroxypropan-2-yl)-[1,1′-biphenyl]-4-yl)methyl)-2-thia-6-azaspiro[3.3]heptane 2-oxide], the IC50 was in the range of 50 to 250 nM.

`CS(=O)(=O)N1CC2(CN(Cc3ccc(-c4ccc(C(O)(C(F)(F)F)C(F)(F)F)cc4)cc3O)C2)C1` [Example 61, 4′-(1,1,1,3,3,3-hexafluoro-2-hydroxypropan-2-yl)-4-((6-(methylsulfonyl)-2,6-diazaspiro[3.3]heptan-2-yl)methyl)-[1,1′-biphenyl]-3-ol] registered a 50% inhibitory concentration (IC50) of 50 to 250 nM.

`CCc1cc(CN2CC(CN(C)S(C)(=O)=O)C2)ccc1-c1ccc(C(O)(C(F)(F)F)C(F)(F)F)cc1` [Example 29, N-((1-((2-ethyl-4′-(1,1,1,3,3,3-hexafluoro-2-hydroxypropan-2-yl)-[1,1′-biphenyl]-4-yl)methyl)azetidin-3-yl)methyl)-N-methylmethanesulfonamide]: the IC50 was above 250 nM.

`CS(=O)(=O)N1CC2(CN(Cc3ccc(-c4ccc(C(O)(C(F)(F)F)C(F)(F)F)cc4)c(Cl)c3)C2)C1` [Example 47, 2-(2′-chloro-4′-((6-(methylsulfonyl)-2,6-diazaspiro[3.3]heptan-2-yl)methyl)-[1,1′-biphenyl]-4-yl)-1,1,1,3,3,3-hexafluoropropan-2-ol] showed an IC50 above 250 nM.

With `CCc1cc(CN2CCC3(CNC(=O)C3)C2)ccc1-c1ccc(C(O)(C(F)(F)F)C(F)(F)F)cc1` (stereo not shown) [Example 54, 7-((2-ethyl-4′-(1,1,1,3,3,3-hexafluoro-2-hydroxypropan-2-yl)-[1,1′-biphenyl]-4-yl)methyl)-2,7-diazaspiro[4.4]nonan-3-one], the half-inhibitory concentration (IC50) fell in the range of 50 to 250 nM.

`CC(C)c1cc(CN2CC3(C2)CN(S(C)(=O)=O)C3)c(F)cc1-c1ccc(C(O)(C(F)(F)F)C(F)(F)F)cc1` [Example 78, 1,1,1,3,3,3-hexafluoro-2-(5′-fluoro-2′-isopropyl-4′-((6-(methylsulfonyl)-2,6-diazaspiro[3.3]heptan-2-yl)methyl)-[1,1′-biphenyl]-4-yl)propan-2-ol] displayed an IC50 below 50 nM.

On to `CCc1cc(CN2CC3(C2)CN(S(C)(=O)=O)C3)ccc1-c1ccc(C(O)(C(F)(F)F)C(F)(F)F)cc1CC` [Example 77, 2-(2,2′-diethyl-4′-((6-(methylsulfonyl)-2,6-diazaspiro[3.3]heptan-2-yl)methyl)-[1,1′-biphenyl]-4-yl)-1,1,1,3,3,3-hexafluoropropan-2-ol], for which the IC50 was below 50 nM.

(Values after patent US11242350B2, “Spirocyclic ROR-gamma modulators” (Escalier Biosciences B.V., priority 2018, dated 2022).)
